# Data as given in patent US20240166617A1, “PHOSPHOINOSITIDE 3 KINASE BETA INHIBITORS AND COMPOSITIONS AND METHODS THEREOF” (Geode Therapeutics Inc., priority 2021, published 2024).
# Read-outs that look alike come from different tables or passages of the source.
# Legend:
# [1] = target: T1, PIK3Cd_h (Homo sapiens, UniProt O00329); experiment: Enzyme binding assay (KINOMEscan); details: Eurofins DiscoveRx
# T1 construct: purchased Eurofins DiscoveRx Corporation
# T1 sequence (O00329 1-1044): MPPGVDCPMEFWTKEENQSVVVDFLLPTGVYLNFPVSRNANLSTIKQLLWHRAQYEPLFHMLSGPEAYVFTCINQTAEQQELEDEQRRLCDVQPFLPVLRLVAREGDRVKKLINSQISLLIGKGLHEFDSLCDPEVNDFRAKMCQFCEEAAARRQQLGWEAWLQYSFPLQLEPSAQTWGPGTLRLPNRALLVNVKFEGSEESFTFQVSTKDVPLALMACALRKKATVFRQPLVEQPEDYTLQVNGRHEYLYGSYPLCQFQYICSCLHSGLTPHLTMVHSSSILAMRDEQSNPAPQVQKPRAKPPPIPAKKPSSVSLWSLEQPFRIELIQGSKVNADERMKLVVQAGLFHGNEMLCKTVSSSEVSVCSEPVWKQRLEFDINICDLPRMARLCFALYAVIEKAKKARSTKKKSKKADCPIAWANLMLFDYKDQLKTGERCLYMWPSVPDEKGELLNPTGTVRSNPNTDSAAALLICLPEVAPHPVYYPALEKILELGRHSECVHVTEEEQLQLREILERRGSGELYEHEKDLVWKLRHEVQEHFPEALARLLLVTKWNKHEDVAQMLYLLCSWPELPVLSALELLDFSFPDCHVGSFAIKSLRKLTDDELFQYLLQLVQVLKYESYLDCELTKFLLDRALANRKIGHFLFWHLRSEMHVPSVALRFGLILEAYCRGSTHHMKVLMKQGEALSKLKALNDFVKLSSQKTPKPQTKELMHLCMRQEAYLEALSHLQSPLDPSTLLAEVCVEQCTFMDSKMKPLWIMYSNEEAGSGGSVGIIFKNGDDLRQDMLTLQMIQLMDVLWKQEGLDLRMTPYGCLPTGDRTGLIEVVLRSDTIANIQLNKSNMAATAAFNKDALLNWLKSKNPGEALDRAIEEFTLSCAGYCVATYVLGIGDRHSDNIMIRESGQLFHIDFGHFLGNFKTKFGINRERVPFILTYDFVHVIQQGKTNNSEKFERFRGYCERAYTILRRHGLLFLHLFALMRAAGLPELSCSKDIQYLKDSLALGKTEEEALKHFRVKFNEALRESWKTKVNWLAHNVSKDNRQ
# Experimental: (§1) Kinase enzyme binding affinities of compounds disclosed herein were determined using the KINOMEscan technology performed by Eurofins DiscoveRx Corporation, San Diego, California, USA (www.eurofinsdiscoveryservices.com). Table 2 reports the obtained PIK3β Kd values (nM) of, with the PIK3β Kd being the inhibitor binding constant. Table 3 reports the obtained Kd values (nM), with the Kd being the inhibitor binding constant: […]
# [2] = target: T2, PIK3Cg_h (Homo sapiens, UniProt P48736); experiment: Enzyme binding assay (KINOMEscan); details: Eurofins DiscoveRx
# T2 construct: purchased Eurofins DiscoveRx Corporation
# Experimental: as §1
# [3] = target: T3, PIK3Cb_h (Homo sapiens, UniProt P42338); experiment: Enzyme binding assay (KINOMEscan); details: Eurofins DiscoveRx
# T3 construct: purchased Eurofins DiscoveRx Corporation
# Experimental: as §1
# [4] = target: T4, PIK3Ca_h (Homo sapiens, UniProt P42336); experiment: Enzyme binding assay (KINOMEscan); details: Eurofins DiscoveRx
# T4 construct: purchased Eurofins DiscoveRx Corporation
# Experimental: as §1
# [5] = test system: phosphorylation of AKT in HCC70 cells; experiment: Cellular assay: phosphorylation of AKT in HCC70 cells (western blotting); assay type: cell-based; details: Homo sapiens, HCC70, 1 h, HCC70 cells, compound 500 nM, 60 min, inhibition of Akt activity from band intensities
# Procedure, shortened: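 HCC70 cells treated with compound at 500 nM (0.1% DMSO control) for 60 min at 37 °C; pAKT Ser473 and Thr308 plus total AKT measured by western blot with fluorescent detection. Inhibition from band intensities, binned as + (20–60%), ++ (60–80%), +++ (80–90%), ++++ (>90%).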
# [6] = read-out: Index of AI (HCC70) p-AKT Thr 308
# [7] = read-out: Index of AI (HCC70) p-AKT ser 473
# T4 sequence (P42336 whole entry): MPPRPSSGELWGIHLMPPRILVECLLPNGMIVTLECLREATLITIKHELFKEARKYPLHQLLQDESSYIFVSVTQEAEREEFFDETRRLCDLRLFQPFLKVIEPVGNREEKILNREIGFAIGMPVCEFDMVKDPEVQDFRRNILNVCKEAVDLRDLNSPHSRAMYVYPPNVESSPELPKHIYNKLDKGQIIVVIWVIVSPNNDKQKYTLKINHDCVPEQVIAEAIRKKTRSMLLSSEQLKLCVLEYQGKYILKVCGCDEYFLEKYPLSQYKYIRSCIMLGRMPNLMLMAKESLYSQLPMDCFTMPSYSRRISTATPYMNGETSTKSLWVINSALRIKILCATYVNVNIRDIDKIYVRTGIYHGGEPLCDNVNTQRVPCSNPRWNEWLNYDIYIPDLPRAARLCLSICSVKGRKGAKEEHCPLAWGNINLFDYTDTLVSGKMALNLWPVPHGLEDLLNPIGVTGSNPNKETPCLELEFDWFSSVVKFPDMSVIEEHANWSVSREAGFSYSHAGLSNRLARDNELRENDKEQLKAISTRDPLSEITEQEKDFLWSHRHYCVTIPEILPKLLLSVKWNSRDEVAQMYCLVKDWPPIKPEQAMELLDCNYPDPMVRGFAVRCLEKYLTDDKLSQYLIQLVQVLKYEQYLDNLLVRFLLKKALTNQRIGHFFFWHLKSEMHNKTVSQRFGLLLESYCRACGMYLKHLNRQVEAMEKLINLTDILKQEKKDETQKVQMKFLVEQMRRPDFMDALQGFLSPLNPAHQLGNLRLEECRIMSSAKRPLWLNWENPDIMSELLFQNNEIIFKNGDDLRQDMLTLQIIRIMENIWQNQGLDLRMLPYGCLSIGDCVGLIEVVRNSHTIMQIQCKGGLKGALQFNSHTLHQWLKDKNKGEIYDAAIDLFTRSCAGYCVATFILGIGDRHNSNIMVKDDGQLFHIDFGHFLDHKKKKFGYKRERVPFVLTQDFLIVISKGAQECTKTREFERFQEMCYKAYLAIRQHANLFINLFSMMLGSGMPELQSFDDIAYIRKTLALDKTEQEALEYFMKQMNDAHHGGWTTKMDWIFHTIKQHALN
# T3 sequence (P42338 whole entry): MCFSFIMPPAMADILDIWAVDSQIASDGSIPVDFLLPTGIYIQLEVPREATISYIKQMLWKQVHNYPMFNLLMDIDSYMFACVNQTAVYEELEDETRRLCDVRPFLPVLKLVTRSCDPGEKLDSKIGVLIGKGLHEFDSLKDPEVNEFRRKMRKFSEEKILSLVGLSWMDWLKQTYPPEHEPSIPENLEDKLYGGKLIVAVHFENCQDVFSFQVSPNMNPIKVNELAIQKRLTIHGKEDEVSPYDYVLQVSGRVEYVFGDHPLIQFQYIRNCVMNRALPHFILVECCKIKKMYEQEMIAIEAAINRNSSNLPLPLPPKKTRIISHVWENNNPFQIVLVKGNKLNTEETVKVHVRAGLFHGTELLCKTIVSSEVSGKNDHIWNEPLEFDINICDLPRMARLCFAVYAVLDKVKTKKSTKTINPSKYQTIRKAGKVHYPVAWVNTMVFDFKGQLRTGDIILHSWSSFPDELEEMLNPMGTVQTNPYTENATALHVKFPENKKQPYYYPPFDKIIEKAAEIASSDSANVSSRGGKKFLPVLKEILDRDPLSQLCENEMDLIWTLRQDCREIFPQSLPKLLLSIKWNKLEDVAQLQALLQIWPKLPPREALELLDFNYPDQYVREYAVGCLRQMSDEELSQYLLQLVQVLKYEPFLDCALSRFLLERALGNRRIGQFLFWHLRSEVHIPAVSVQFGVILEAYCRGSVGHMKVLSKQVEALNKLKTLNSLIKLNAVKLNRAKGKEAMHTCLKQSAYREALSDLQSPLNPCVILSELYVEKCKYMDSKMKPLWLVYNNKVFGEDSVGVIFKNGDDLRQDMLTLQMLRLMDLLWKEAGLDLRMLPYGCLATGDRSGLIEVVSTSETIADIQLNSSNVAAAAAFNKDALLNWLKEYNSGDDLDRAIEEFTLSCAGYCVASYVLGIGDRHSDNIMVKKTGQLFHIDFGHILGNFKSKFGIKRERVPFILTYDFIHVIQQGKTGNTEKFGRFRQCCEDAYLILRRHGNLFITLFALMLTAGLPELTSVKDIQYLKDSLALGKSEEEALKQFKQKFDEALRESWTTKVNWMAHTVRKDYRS
# T2 sequence (P48736 whole entry): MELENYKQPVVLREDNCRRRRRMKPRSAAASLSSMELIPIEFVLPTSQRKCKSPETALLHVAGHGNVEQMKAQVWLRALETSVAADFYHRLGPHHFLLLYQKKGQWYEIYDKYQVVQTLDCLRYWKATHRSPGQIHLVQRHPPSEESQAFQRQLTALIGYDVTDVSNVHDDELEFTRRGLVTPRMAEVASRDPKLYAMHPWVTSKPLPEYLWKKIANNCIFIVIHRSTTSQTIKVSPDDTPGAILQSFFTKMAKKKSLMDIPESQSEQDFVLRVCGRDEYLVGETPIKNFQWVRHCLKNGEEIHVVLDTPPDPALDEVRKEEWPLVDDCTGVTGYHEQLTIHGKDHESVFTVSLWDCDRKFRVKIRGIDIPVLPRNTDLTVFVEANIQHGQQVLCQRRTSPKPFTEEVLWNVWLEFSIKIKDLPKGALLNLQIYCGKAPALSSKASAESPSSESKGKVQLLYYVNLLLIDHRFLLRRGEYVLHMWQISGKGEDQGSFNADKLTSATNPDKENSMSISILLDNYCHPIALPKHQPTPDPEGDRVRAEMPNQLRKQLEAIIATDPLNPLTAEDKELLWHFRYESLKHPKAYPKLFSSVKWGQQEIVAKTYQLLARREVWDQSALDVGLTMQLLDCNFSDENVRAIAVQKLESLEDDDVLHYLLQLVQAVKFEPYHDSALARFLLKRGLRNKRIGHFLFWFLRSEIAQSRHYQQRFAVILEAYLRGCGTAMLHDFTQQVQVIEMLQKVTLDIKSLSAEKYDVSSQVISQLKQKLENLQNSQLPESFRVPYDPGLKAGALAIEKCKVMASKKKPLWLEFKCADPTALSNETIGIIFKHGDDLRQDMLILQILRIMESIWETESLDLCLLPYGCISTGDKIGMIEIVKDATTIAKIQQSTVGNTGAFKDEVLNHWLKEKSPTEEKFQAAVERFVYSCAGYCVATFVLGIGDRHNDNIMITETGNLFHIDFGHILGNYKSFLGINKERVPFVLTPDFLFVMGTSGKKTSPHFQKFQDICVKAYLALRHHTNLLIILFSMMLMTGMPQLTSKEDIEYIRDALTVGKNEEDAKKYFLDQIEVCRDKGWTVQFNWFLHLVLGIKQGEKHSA
SMILES,Kd [1] [nM],Kd [2] [nM],Kd [3] [nM],Kd [4] [nM],"inhibition at 0.5 µM [5, 6] [%]","inhibition at 0.5 µM [5, 7] [%]"
"CC(Nc1cc(F)cc(F)c1)c1cc(C(=O)N2CCC(N(C)C)C2)cn2c(=O)cc(N3CCOCC3)nc12 (single isomer, unassigned) [Compound 48-P1]",> 10000,> 10000,400,> 10000,,
"CC(Nc1cc(F)cc(F)c1)c1cc(N2CCOCC2=O)cc2c(=O)cc(N3CCOCC3)oc12 (stereo not shown) [Compound 10, 4-(8-(1-((3,5-difluorophenyl)amino)ethyl)-2-morpholino-4-oxo-4H-chromen-6-yl)morpholin-3-one]",8,730,0.2,22,> 90,> 90
"CNS(=O)(=O)c1cc(C(C)Nc2cc(F)cc(F)c2)c2oc(N3CCOCC3)cc(=O)c2c1 (stereo not shown) [Compound 16, 8-(1-((3,5-difluorophenyl)amino)ethyl)-N-methyl-2-morpholino-4-oxo-4H-chromene-6-sulfonamide]",8.1,110,0.19,36,> 90,> 90
"CC(Nc1cc(F)cc(F)c1)c1cc(NC2=NC(C)(C)CO2)cc2c(=O)cc(N3CCOCC3)oc12 (stereo not shown) [Compound 21, 8-(1-((3,5-difluorophenyl)amino)ethyl)-6-((4,4-dimethyl-4,5-dihydrooxazol-2-yl)amino)-2-morpholino-4H-chromen-4-one]",58,2200,0.31,45,80 to 90,80 to 90
"CN(C)C(=O)c1cc(CN2CCc3c(F)cc(F)cc32)c2oc(N3CCOCC3)cc(=O)c2c1 [Compound 32, 8-((4,6-difluoroindolin-1-yl)methyl)-N,N-dimethyl-2-morpholino-4-oxo-4H-chromene-6-carboxamide]",19,500,0.18,54,> 90,> 90
"CC1Cc2c(F)cccc2N1Cc1cc(C(=O)N(C)C)cc2c(=O)cc(N3CCOCC3)oc12 (stereo not shown) [Compound 33, 8-((4-fluoro-2-methylindolin-1-yl)methyl)-N,N-dimethyl-2-morpholino-4-oxo-4H-chromene-6-carboxamide]",12,320,0.49,17,> 90,> 90
"CC(Nc1cc(F)cc(F)c1)c1cc(C(=O)N2CCC(N(C)C)C2)cn2c(=O)cc(N3CCOCC3)nc12 (stereo not shown) [Compound 48, 9-(1-((3,5-difluorophenyl)amino)ethyl)-7-(3-(dimethylamino)pyrrolidine-1-carbonyl)-2-morpholino-4H-pyrido[1,2-a]pyrimidin-4-one]",40,730,0.26,130,80 to 90,80 to 90
"C[C@@H](Nc1cc(F)cc(F)c1)c1cc(C(=O)N2CC[C@@H](N(C)C)C2)cn2c(=O)cc(N3CCOCC3)nc12 [Compound 48-P3, 9-((R)-1-((3,5-difluorophenyl)amino)ethyl)-7-((R)-3-(dimethylamino)pyrrolidine-1-carbonyl)-2-morpholino-4H-pyrido[1,2-a]pyrimidin-4-one]",8.9,1100,,92,,
"C[C@@H](Nc1cc(F)cc(F)c1)c1cc(C(=O)N2CC[C@H](N(C)C)C2)cn2c(=O)cc(N3CCOCC3)nc12 [Compound 48-P4, 9-((R)-1-((3,5-difluorophenyl)amino)ethyl)-7-((S)-3-(dimethylamino)pyrrolidine-1-carbonyl)-2-morpholino-4H-pyrido[1,2-a]pyrimidin-4-one]",18,1600,,190,,
"C[C@@H]1CN(c2cc(=O)c3cc(C(=O)N(C)C)cc(CN4CCc5c(F)cc(F)cc54)c3o2)CCO1 [Compound 90, (R)-8-((4,6-difluoroindolin-1-yl)methyl)-N,N-dimethyl-2-(2-methylmorpholino)-4-oxo-4H-chromene-6-carboxamide]",1.5,87,0.075,3.2,> 90,> 90
"C[C@@H]1CN(c2cc(=O)c3cc(C(=O)N(C)C)cc(CN4CCc5c(F)cccc54)c3o2)CCO1 [Compound 91, (R)-8-((4-fluoroindolin-1-yl)methyl)-N,N-dimethyl-2-(2-methylmorpholino)-4-oxo-4H-chromene-6-carboxamide]",7.4,230,1,22,> 90,> 90
